Measured values from paper PMC12259270, “Sensory neuron–expressed FGF13 controls nociceptive signaling in diabetic neuropathy models” (The Journal of Clinical Investigation, 2025).
Residues, ends and D or L forms follow the SMILES beside them. *: point of attachment. NHPh = c1ccc(N*)cc1

How the values were obtained:
C57BL/6 mice = experiment: Mechanical sensitivity (von Frey, LVF/HVF) after intraplantar injection, mice without capsaicin; type: in vivo, mouse
Method: Experiments were performed on 6- to 12-week-old male C57BL/6 mice (The Jackson Laboratory, Bar Harbor, ME) housed in the AAALAC-accredited facility at the University of Texas Medical Branch. Mice were group-housed with up to 5 mice per cage on a 12-to-12-hour light–dark cycle and had access to water and food ad libitum. All protocols were approved by the Institutional Animal Care and Use Committee (IACUC) at the University of Texas Medical Branch and in accordance with the National Institutes of Health (NIH) guidelines.
PW164 and ZL192 were dissolved in DMSO and saline in a ratio of 1:10. 0.1% capsaicin (10% ethanol, 10% Tween-20 in saline; Sigma-Aldrich). All the compounds were injected at the center of the hind paw. The control group received a DMSO-saline mixture. […]
Assessment of mechanical sensitivity
Mechanical sensitivity was assessed using von Frey filaments (VFF 0.1g and 1.0 g force) in mice that were either naïve or received intraplantar (i.p.) injection of capsaicin. VFFs were applied at the injection site (capsaicin or drug unilateral intraderma l injection at the center of the hind paw using a 30 -G needle). VFF of 1.0 g force, which evokes a 40–60% withdrawal response in the naïve condition, was used to detect hyperalgesia, and VFF of 0.1 g […]
mechanical sensitivity was expressed as % withdrawals from 10 consecutive stimulations. […]

[1] = system: Na+ currents in hIPSC-derived sensory neurons (RealDRG); experiment: Whole-cell voltage clamp, hIPSC-derived sensory neurons (RealDRG) with Nav1.7 blocker ProTx-II; type: cell-based, human; conditions: for Activation / Peak Density / Steady-State inactivation / Tau (τ) / Long-term inactivation, 2nd Pulse / Long-term inactivation, 3rd Pulse / Long-term inactivation, 4th Pulse: RealDRG
Method: Next, we conducted whole-cell patch-clamp electrophysiological recordings in hIPSC-derived sensory neurons under three conditions: unstimulated and treated with 0.07% ethanol (capsaicin vehicle), treated with capsaicin (100 nM, 10 minutes), and treated with capsaicin plus SB-366791 (10 μM), a selective TRPV1 inhibitor. Each group was exposed to either vehicle (0.01% DMSO) or PW164 (50 μM), with all recordings performed in the presence of the Nav1.8 blocker A-803467 (300 nM) ([41]). The experimental groups are color coded in Figure 2A. Capsaicin caused potentiation of INa (Figure 2A) and induced hyperpolarizing shifts in the V1/2 of activation (Figure 2B) and SSI (Figure 2C). […] Next, we investigated whether silencing FGF13 could replicate PW164’s effects and prevent additional activity of the compound. hIPSC-derived sensory neurons were transfected with a previously validated pAAV-shFGF13-GFP construct ([42]) (Supplemental Figure 8). […] Neither PW164 nor FGF13 silencing affected Na+ currents in neurons transfected with pAAV-shCTRL-GFP or pAAV-shFGF13-GFP, whether unstimulated or treated with capsaicin in the presence of ProTx II (Supplemental Figure 9 and Supplemental Table 6). Thus, PW164 selectively modulated FGF13-dependent Na^+ current sensitization via TRPV1, with FGF13 silencing mimicking and validating PW164’s effect. […]
Whole-cell patch clamp electrophysiology
HEK293-Nav1.7 cells, HEK293 stably expressing human Nav1.6 (HEK-Nav1.6), HEK293 stably expressing human Nav1.5 (HEK-Nav1.5), human hIPSC-derived sensory neurons (RealDRGTM from Anatomic Incorporated 1020F1-1M) and donor-derived DRG neurons were plated at low density on glass coverslips and processed for whole-cell patch clamp electrophysiology in voltage-clamp and/or current clamp mode. Whole-cell patch electrophysiological experiments were conducted following previously published studies (26). Current densities were obtained by dividing INa amplitude by membrane capacitance. Current –voltage relationships were generated by plotting current density as a function of the […]. Conductance (G Na) was calculated by the […]
where INa is the current amplitude at voltage Vm, and Erev is the Na+ reversal potential.
Activation curves were derived by plotting normalized GNa as a function of test potential and fitted using […]
Where GNa,Max is the maximum conductance, Va is the membrane potential of half-maximal activation, Em is the membrane voltage and k is the slope factor. For steady -state inactivation, normalized current amplitude (INa/INa,Max) at the test potential was plotted as a function of prepulse potential (Vm) and fitted using the […]
Where Vh is the potential of half-maximal inactivation, E m is the membrane voltage, and k is the slope factor.
Transient INa inactivation decay was estimated with the standard exponential equation. Inactivation time constant (tau, τ) was fitted with the following equation: […]
where I(t) is the amplitude of the current at time t and Iss is the steady-state current during a single voltage-step.
The goodness of fitting was determined by correlation coefficient (R), and the cutoff of R was set at 0.85. To observe effects on long-term inactivation (LTI), a four-step protocol was employed during which cells were subjected to four 0 mV, 20 ms depolarization pulses separated by −90 mV, 40 ms recovery intervals. To control for various cell sizes, the current densities were calculated by dividing INa peak current amplitude/membrane capacitance (Cm). To represent the fraction of channels entering into LTI, the peak INa observed during depolarization cycles 2-4 was normalized to the peak INa observed during depolarization cycle 1 (INa/INa,Cycle 1) and plotted as a function of the depolarization cycle.
The cumulative (frequency-dependent) use-dependency was determined by applying 20 pulses with a depolarization to −10 mV (50 ms duration) and 50 ms recovery intervals with a train of 20 pulses at 10 Hz from a holding potential at -70 mV. […]

[2] = + Nav1.7 blocker ProTx-II, Naive + ZL192
[3] = + Nav1.7 blocker ProTx-II, Naïve + ZL192

## CC(=O)N[C@@H](Cc1ccccc1)C(=O)N[C@@H](CC(C)C)C(=O)N1CCC[C@H]1C(=O)N[C@@H](CCCCN)C(=O)Nc1ccccc1 [ZL192] (Ac-FLPK-NHPh)
C57BL/6 mice; ZL192 0.18 mg/mL, i.pl.
  mechanical hypersensitivity in AAV2-shFGF13 mice: absent
  mechanical sensitivity in AAV2-shCTRL mice: caused mechanical and thermal hypersensitivity
C57BL/6 mice; naive WT mice, ZL192 i.pl. 0.06 or 0.18 mg/mL
  duration of increased mechanical response: up to 2 hours
C57BL/6 mice; naive WT mice, ZL192 i.pl. 5 μL, 0.06 or 0.18 mg/mL, vs vehicle
  response to LVF and HVF stimulation: increased the response
[1]; Control cells, pulse 1
  UseDependency (Suppl. Figure S14D): 1
[1]; Control cells, pulse 3
  UseDependency (Suppl. Figure S14D): 0.9097
[1]; Control cells, pulse 5
  UseDependency (Suppl. Figure S14D): 0.8784
[1]; Control cells, pulse 10
  UseDependency (Suppl. Figure S14D): 0.8714
[1]; Control cells, pulse 15
  UseDependency (Suppl. Figure S14D): 0.8646
[1]; Control cells, pulse 20
  UseDependency (Suppl. Figure S14D): 0.8556
[1]; Naive cells, pulse 1
  UseDependency (Suppl. Figure S14D): 1
[1]; Naive cells, pulse 3
  UseDependency (Suppl. Figure S14D): 0.9097
[1]; Naive cells, pulse 5
  UseDependency (Suppl. Figure S14D): 0.8778
[1]; Naive cells, pulse 10
  UseDependency (Suppl. Figure S14D): 0.8143
[1]; Naive cells, pulse 15
  UseDependency (Suppl. Figure S14D): 0.7732
[1]; Naive cells, pulse 20
  UseDependency (Suppl. Figure S14D): 0.7489
[1]; [2]
  Activation: −27.64 ± 0.93 mV
  Peak Density: −96.53 ± 4.85 pA/pF
  Steady-State inactivation: −59.34 ± 1.61 mV
  Tau (τ): 1.33 ± 0.06 ms
[1]; [3]
  Long-term inactivation, 2nd Pulse: −99.26 ± 0.91 % maximal Na+ current
  Long-term inactivation, 3rd Pulse: −100.38 ± 1.08 % maximal Na+ current
  Long-term inactivation, 4th Pulse: −100.45 ± 1.3 % maximal Na+ current
[1]; + ProTx-II, Control + ZL192
  Activation: −30.93 ± 0.89 mV
  Long-term inactivation, 2nd Pulse: −98.61 ± 0.74 % maximal Na+ current
  Long-term inactivation, 3rd Pulse: −99.17 ± 0.84 % maximal Na+ current
  Long-term inactivation, 4th Pulse: −98.95 ± 1.01 % maximal Na+ current
  Peak Density: −101.87 ± 5.35 pA/pF
  Steady-State inactivation: −53.15 ± 0.91 mV
  Tau (τ): 1.0 ± 0.04 ms
[1]; + ProTx-II, Sh + ZL192
  Activation: −28.74 ± 1.12 mV
  Peak Density: −99.91 ± 8.28 pA/pF
  Steady-State inactivation: −62.97 ± 1.64 mV
  Tau (τ): 1.27 ± 0.08 ms
[1]; + ProTx-II, Sh + Zl192
  Long-term inactivation, 2nd Pulse: −96.65 ± 1.81 % maximal Na+ current
  Long-term inactivation, 3rd Pulse: −97.25 ± 2.18 % maximal Na+ current
  Long-term inactivation, 4th Pulse: −99.23 ± 3.28 % maximal Na+ current
[1]; ShFGF13 cells, pulse 1
  UseDependency (Suppl. Figure S14D): 1
[1]; ShFGF13 cells, pulse 3
  UseDependency (Suppl. Figure S14D): 0.9541
[1]; ShFGF13 cells, pulse 5
  UseDependency (Suppl. Figure S14D): 0.9361
[1]; ShFGF13 cells, pulse 10
  UseDependency (Suppl. Figure S14D): 0.8879
[1]; ShFGF13 cells, pulse 15
  UseDependency (Suppl. Figure S14D): 0.8614
[1]; ShFGF13 cells, pulse 20
  UseDependency (Suppl. Figure S14D): 0.8526
[1]; ZL192 50 μM, ProTx-II 10 nM, Suppl Fig 14
  activity on Na+ currents with ProTx-II: no activity
